Eight molecules from patent publication US9283213B2, “Dihydropyridin-2(1H)-one compounds as S-nitrosoglutathione reductase inhibitors and neurokinin-3 receptor antagonists” (N30 Pharmaceuticals, Inc., priority 2010, dated 2016) can be followed below.

The target in assay [1] is T1, human NK3 receptor (Homo sapiens, UniProt P29371).
T1 construct: expressed in transfected cells; host or cells: CHO cells
T1 sequence (P29371 1-465): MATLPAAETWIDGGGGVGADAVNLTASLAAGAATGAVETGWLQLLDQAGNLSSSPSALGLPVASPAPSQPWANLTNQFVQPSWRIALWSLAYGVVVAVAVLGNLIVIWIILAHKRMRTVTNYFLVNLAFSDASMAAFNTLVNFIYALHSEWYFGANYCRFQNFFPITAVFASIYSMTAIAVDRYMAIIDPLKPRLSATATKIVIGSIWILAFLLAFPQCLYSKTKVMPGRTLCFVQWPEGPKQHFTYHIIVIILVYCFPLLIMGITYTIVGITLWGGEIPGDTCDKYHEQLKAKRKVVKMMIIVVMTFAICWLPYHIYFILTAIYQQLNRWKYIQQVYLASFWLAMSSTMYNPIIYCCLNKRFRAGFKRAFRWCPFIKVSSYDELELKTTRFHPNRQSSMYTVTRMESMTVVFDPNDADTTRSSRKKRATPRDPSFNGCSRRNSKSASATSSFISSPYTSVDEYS
Kind of assay: Human NK3 receptor binding assay determined by IC50. As to conditions: 0.4 nM [3H]SR142801; CHO cell membranes. The procedure:
Evaluation of the affinity of compounds for the human NK3 receptor from transfected CHO cells was performed using an antagonist radioligand binding assay. The antagonist activity of a representative subset of test compounds was evaluated over a range of concentrations, and the results were expressed as IC50 values.
Receptor binding assays were performed using crude membranes prepared from CHO cells expressing human NK3 receptor. Osanetant (SR142801), a non-peptide NK3 antagonist, was used as a ligand, and SB222200 was used as a positive control reference compound. […] The filters were rinsed several times with ice-cold 50 mM Tris/HCl using a 96-sample cell harvester (Unifilter, Packard), dried, and counted for radioactivity in a scintillation counter (Topcount, Packard) using a scintillation cocktail (Microscint 0, Packard). […] Nonspecific binding was determined in the presence of 10 μM SB222200. […] The IC50 values (concentration causing a half-maximal inhibition of control specific binding) and Hill coefficients (nH) were determined by non-linear regression analysis of the competition curves generated with mean replicate values using Hill equation curve fitting (Y=D+[(A−D)/(1+(C/C50)^nH)], where Y=specific binding, D=minimum specific binding, A=maximum specific binding, C=compound concentration, C50=IC50, and nH=slope factor). […]

In a further assay the target is T2, GSNOR (Homo sapiens, UniProt P11766).
T2 construct: made in house; host or cells: E. coli
Kind of assay: GSNOR assay (inhibition of GSNOR activity in vitro). The format is biochemical. As to conditions: 0.240 mM GSNO, 0.300 mM NADH, pH 7.4, 25° C.; read-out: GSNOR inhibitor IC50. The procedure:
Various compounds were tested in vitro for their ability to inhibit GSNOR activity.
Pre-cultures were grown from stabs of a GSNOR glycerol stock in 2XYT media containing 100 ug/ml ampicillin after an overnight incubation at 37° C. Cells were then added to fresh 2XYT (4 L) containing ampicillin and grown to an OD (A600) of 0.6-0.9 at 37° C. before induction. GSNOR expression was induced with 0.1% arabinose in an overnight incubation at 20° C.
E. coli cell paste was lysed by nitrogen cavitation and the clarified lysate purified by Ni affinity chromatography on an AKTA FPLC (Amersham Pharmacia). The column was eluted in 20 mM Tris pH 8.0/250 mM NaCl with a 0-500 mM imidazole gradient. […] GSNOR was recovered in the flowthrough fraction and for crystallography is further purified by Q-Sepharose and Heparin flowthrough chromatography in 20 mM Tris pH 8.0, 1 mM DTT, 10 uM ZnSO4.
GSNO and Enzyme/NADH Solutions are made up fresh each day. The Solutions are filtered and allowed to warm to room temperature. GSNO Solution: 100 mM NaPO4 (pH 7.4), 0.480 mM GSNO. 396 μL of GSNO Solution is added to a cuvette followed by 8 μL of test compound in DMSO (or DMSO only for full reaction control) and mixed with the pipette tip. Compounds to be tested are made up at a stock concentration of 10 mM in 100% DMSO. 2 fold serial dilutions are done in 100% DMSO. 8 μL of each dilution are added to an assay so that the final concentration of DMSO in the assay is 1%. The concentrations of compounds tested range from 100 to 0.003 μM. Enzyme/NADH Solution: 100 mM NaPO4 (pH 7.4), 0.600 mM NADH, 1.0 μg/mL GSNO Reductase. 396 μL of the Enzyme/NADH Solution is added to the cuvette to start the reaction. The cuvette is placed in the Cary 3E UV/Visible Spectrophotometer and the change in 340 nm absorbance/min at 25° C. is recorded for 3 minutes. The assays are done in triplicate for each compound concentration. IC50's for each compound are calculated using the standard curve analysis in the Enzyme Kinetics Module of SigmaPlot.
Final assay conditions: 100 mM NaPO4, pH 7.4, 0.240 mM GSNO, 0.300 mM NADH, 0.5 μg/mL GSNO Reductase and 1% DMSO. Final volume: 800 μL/cuvette.

Assay [2] deals with T1, human NK3 receptor. Nature of the assay: Human NK3 receptor binding assay at 10 μM. The note with it: 10 μM test compound; 0.4 nM [3H]SR142801; CHO cell membranes; read-out: percent inhibition at 10 μM, human NK3 receptor binding. The procedure: Evaluation of the affinity of test compounds for the human neurokinin NK3 receptor from transfected CHO cells was performed using an antagonist radioligand binding assay. Antagonist activity was evaluated at a concentration of 10 μM for a representative subset of test compounds, and the results were expressed as the percent inhibition at that concentration.
Receptor binding assays were performed using crude membranes prepared from CHO cells expressing human NK3 receptor. Osanetant (SR142801), a non-peptide NK3 antagonist, was used as a ligand, and SB222200 was used as a positive control reference compound. The assay was performed with cell membrane homogenates (24 μg protein) incubated for 120 min at 22° C. with 0.4 nM [^3H]SR142801 in the absence or presence of the test compound in a buffer containing 20 mM Hepes/NaOH (pH 7.4), 120 mM NaCl, 1 mM MnCl2, 0.01% bacitracin, 0.002% aprotinin and 0.1% BSA. Following incubation, the samples were filtered rapidly under vacuum through glass fiber filters (GF/B, Packard) that had been presoaked with 0.3% PEI. The filters were rinsed several times with ice-cold 50 mM Tris/HCl using a 96-sample cell harvester (Unifilter, Packard), dried, and counted for radioactivity in a scintillation counter (Topcount, Packard) using a scintillation cocktail (Microscint 0, Packard). Each test compound was evaluated at a single concentration of 10 μM. The standard reference compound, SB222200, was tested in each experiment. Nonspecific binding was determined in the presence of 10 μM SB222200. The specific ligand binding to the receptor is defined as the difference between the total binding and the nonspecific binding. The results are expressed as a percent of control specific binding ((measured specific binding/control specific binding)×100) obtained in the presence of the test compounds.

The target in assay [3] is T1, human NK3 receptor. Kind of assay: Human NK3 receptor binding assay at 1 uM. The note with it: 1 μM test compound; 0.4 nM [3H]SR142801; CHO cell membranes; read-out: percent inhibition at 1 μM, human NK3 receptor binding. As for the experimental part: Evaluation of the affinity of compounds for the human NK3 receptor from transfected CHO cells was performed using an antagonist radioligand binding assay. Antagonist activity was evaluated at a concentration of 1 μM for a representative subset of test compounds, and the results were expressed as the percent inhibition at that concentration.
Receptor binding assays were performed using crude membranes prepared from CHO cells expressing human NK3 receptor. Osanetant (SR142801), a non-peptide NK3 antagonist, was used as a ligand, and SB222200 was used as a positive control reference compound. […] The filters were rinsed several times with ice-cold 50 mM Tris/HCl using a 96-sample cell harvester (Unifilter, Packard), dried, and counted for radioactivity in a scintillation counter (Topcount, Packard) using a scintillation cocktail (Microscint 0, Packard). Each test compound was evaluated at a single concentration of 1 μM. […] Nonspecific binding was determined in the presence of 10 μM SB222200. […] The results are expressed as a percent of control specific binding ((measured specific binding/control specific binding)×100) obtained in the presence of the test compounds.

Structures are written as SMILES.

T2 sequence (P11766 whole entry): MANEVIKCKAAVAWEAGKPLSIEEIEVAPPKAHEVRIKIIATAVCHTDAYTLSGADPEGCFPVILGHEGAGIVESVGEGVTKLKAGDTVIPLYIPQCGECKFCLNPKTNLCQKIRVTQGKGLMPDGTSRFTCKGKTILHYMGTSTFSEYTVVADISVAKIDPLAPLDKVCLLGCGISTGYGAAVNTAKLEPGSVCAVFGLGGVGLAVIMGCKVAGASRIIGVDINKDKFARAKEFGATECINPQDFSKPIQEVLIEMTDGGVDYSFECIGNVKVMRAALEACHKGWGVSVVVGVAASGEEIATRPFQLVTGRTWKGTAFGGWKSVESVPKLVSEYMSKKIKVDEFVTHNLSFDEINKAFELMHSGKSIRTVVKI

What is called IC50 is the point on the concentration scale where inhibition reaches its midpoint. As usually defined, the inhibition is the change of the read-out against control, counted positive when it falls. For `CCOc1cc(C2CC(=O)NC(c3ccccc3)=C2c2ccccc2)cc([N+](=O)[O-])c1O` (stereo not shown) [Example 1, 4-(3-ethoxy-4-hydroxy-5-nitrophenyl)-5,6-diphenyl-3,4-dihydropyridin-2(1H)-one], the concentration for half-maximal inhibition (IC50) is around 1100 nM at human NK3 receptor [1] and below 100 nM at GSNOR. In addition, on human NK3 receptor [2], the inhibition at 10 µM was above 50%. For the molecule `CCOc1cc(C2CC(=O)NC(c3cccnc3)=C2c2ccsc2)cc([N+](=O)[O-])c1O` (stereo not shown) [Example 2, 4-(3-ethoxy-4-hydroxy-5-nitrophenyl)-6-(pyridin-3-yl)-5-(thiophen-3-yl)-3,4-dihydropyridin-2(1H)-one], at GSNOR, the IC50 is below 100 nM. Also, the inhibition at 10 µM at human NK3 receptor [2] is above 50%. Take `CCOc1cc(C2CC(=O)NC(c3cnn(C)c3)=C2c2ccsc2)cc([N+](=O)[O-])c1O` (stereo not shown) [Example 4, 4-(3-ethoxy-4-hydroxy-5-nitrophenyl)-6-(1-methyl-1H-pyrazol-4-yl)-5-(thiophen-3-yl)-3,4-dihydropyridin-2(1H)-one]: the IC50 at GSNOR was below 100 nM. Further, the inhibition at 10 µM on human NK3 receptor [2] is above 50%.

Consider `O=C1CC(c2ccc(C(=O)O)c(O)c2)C(c2ccsc2)=C(c2ccccc2)N1` (stereo not shown) [Example 7, 2-hydroxy-4-(2-oxo-6-phenyl-5-(thiophen-3-yl)-1,2,3,4-tetrahydropyridin-4-yl)benzoic acid], for which the half-maximal inhibitory concentration (IC50) on GSNOR is below 100 nM. Consider `Cn1cc(C2=C(c3ccsc3)C(c3ccc(C(=O)O)c(O)c3)CC(=O)N2)cn1` (stereo not shown) [Example 9, 2-hydroxy-4-(6-(1-methyl-1H-pyrazol-4-yl)-2-oxo-5-(thiophen-3-yl)-1,2,3,4-tetrahydropyridin-4-yl)benzoic acid], for which the IC50 at GSNOR was below 100 nM.

Turning to `O=C1CC(c2cc(OCCO)c(O)c([N+](=O)[O-])c2)C(c2ccccc2)=C(c2ccccc2)N1` (stereo not shown) [Example 14, 4-(4-hydroxy-3-(2-hydroxyethoxy)-5-nitrophenyl)-5,6-diphenyl-3,4-dihydropyridin-2(1H)-one], on human NK3 receptor [3], the inhibition at 1 µM is above 50%. The half-maximal inhibitory concentration (IC50) on GSNOR is below 100 nM. As for `CCOc1cc(C2CC(=O)N(C)C(c3ccccc3)=C2c2ccccc2)cc([N+](=O)[O-])c1O` (stereo not shown) [Example 16, 4-(3-ethoxy-4-hydroxy-5-nitrophenyl)-1-methyl-5,6-diphenyl-3,4-dihydropyridin-2(1H)-one], at human NK3 receptor [3], the inhibition at 1 µM is above 50%. Turning to `Cn1cc(C2=C(c3cccs3)C(c3cc(O)c(C(=O)O)c(F)c3)CC(=O)N2)cn1` (stereo not shown) [Example 17, 2-fluoro-6-hydroxy-4-(6-(1-methyl-1H-pyrazol-4-yl)-2-oxo-5-(thiophen-2-yl)-1,2,3,4-tetrahydropyridin-4-yl)benzoic acid], the IC50 on GSNOR was below 100 nM.
